Laboratory results reported in patent US11198869B2, “Angelman syndrome antisense treatment” (The Texas A&M University System, priority 2017, dated 2021).
Where two headings read alike, the source gives them in different places.

Test system: UBE3A-AS
Assay: UBE3A-AS steady state RNA (TaqMan qRT-PCR) in GABAergic iPSC-derived neurons
Format: cell-based, human
Conditions: for Difference, UBE3A-AS RNA level / UBE3A-AS RNA levels relative to the control treatment (in words): ASOs 10 μM; for low concentration that significantly reduced UBE3A-AS RNA levels: human iPSC-derived neurons; for Relative Potency: relative to ASO 4.S = 1; for decrease of UBE3A-AS RNA levels: 10 μM
Protocol: Human-specific ASOs were then designed to target this region, which included four ASOs targeting non-polymorphic regions in human and regions conserved (100%) with macaque (Rhesus and Cynomolgus) (Table 7 and FIG. 3A). Human induced pluripotent stem cell (iPSC) neural precursor cells were differentiated into GABAergic neurons for 14 DIV and then treated with a control ASO [ASO-C (10 μM, n=3)], Topotecan [Topo (1 μM, n=2)], and six ASOs targeting UBE3A-AS [ASO-1, ASO-2, ASO-3, ASO-4, ASO-5, and ASO-6 (10 μM, n=3)]. Additionally, an ASO targeting an intronic region downstream of SNORD109B was included (ASO-7). Six days post-treatment (20 DIV), RNA was isolated from the neurons and the steady state RNA levels of UBE3A-AS and UBE3A were estimated relative to the control treatment (FIG. 3B).
The potency of ASO-4 was further examined given its effect on UBE3A-AS RNA levels. GABAergic iPSC-derived neurons were treated at 14 DIV with a 10-point ½ log dose response curve of ASO-4 and Topotecan, as a positive control and for comparisons between treatment [1 nM, 3 nM, 10 nM, 30 nM, 100 nM, 300 nM, 1 μM, 3 μM, 10 μM, and 30 μM (ASO-4, n=6; Topotecan, n=2)]. At 20 DIV, the steady state RNA levels of UBE3A-AS were measured and dose response curves fitted to estimate the IC50 and Emax (i.e., maximum UBE3A-AS inhibition) (Table 9 and FIG. 4A). […]
Additional ASOs targeting the 5′-end of UBE3A-AS were then designed to optimize the target sequences of ASO-4 (ASO-4.1, ASO-4.2, ASO-4.3, and ASO-4.4) as well as two other target regions, ASO-3 (ASO-3.1 and ASO-3.2) and ASO-6 (ASO-6.1) (Table 11). Additionally, ASO-4 was manufactured at two different vendors for comparative purposes (ASO-4.S, Sigma; ASO-4.I, Integrated DNA Technologies). Human iPSC-derived neurons (GABAergic) were treated at 14 DIV with a […] ½ log dose curve of ASO-3.1, ASO-3.2, ASO-4.S, ASO-4.I, ASO-4.1, ASO-4.2, ASO-4.3, ASO-4.4, and ASO-6.1 [30 nM, 100 nM, 300 nM, 1 μM (n=6)]. At 20 DIV, the IC50 and Emax of each ASO was estimated as described above (FIG. 5A-B and Table 12). […] No significant difference was observed between ASO-4.S and ASO-4.I.
The potency of ASO-4 and ASO-6.1 was further examined in iPSC-derived neurons at a later time point in differentiation. GABAergic iPSC-derived neurons were treated at 29 DIV with a 10-point ½ log dose response curve of ASO-4 and ASO-6.1 [1 nM, 3 nM, 10 nM, 30 nM, 100 nM, 300 nM, 1 μM, 3 μM, 10 μM, and 30 μM (n=3)]. At 35 DIV, the IC50 and Emax of each ASO was estimated as described above (FIG. 5C-D and Table 14). The dose response curves of ASO-4 and ASO-6.1 were not similar (Parallelism test: F(3,172)=22.7, p<0.0001).
GABAergic and glutamatergic induced pluripotent stem cell (iPSC) derived neural precursor cells (NRC-100-010-001 and GNC-301-030-001, Cellular Dynamics International, Madison Wis.) were differentiated into neurons according to the manufactures protocol. Briefly, neural precursor cells were thawed and resuspended in chemically defined medium and added to sterile-culture plates coated with poly-D-lysine and laminin. The medium was replaced 24 hr after plating and then one-half of the medium was replaced every 3-5 days afterwards.
For cultured iPSC-derived neurons, RNA isolation and cDNA synthesis were performed using the Cell-to-CT kit (Thermo Fisher Scientific) in a lysate volume of 55 μl.
The steady state RNA levels of target transcripts were measured using TaqMan quantitative reverse-transcription PCR (qRT-PCR) assays. Total reaction volume was 10 uL, including 2 μl of cDNA, 1× Gene Expression Master mix (4369016, Thermo Fisher Scientific, Waltham, Mass.), and 1× TaqMan primer assay (Thermo Fisher Scientific). Cycling conditions were 2 minutes at 50° C., 10 minutes at 95° C., and 40 cycles of 15 seconds at 95° C. and 1 minute at 60° C., with readings taken at the 60° C. step of every cycle. […]

[1] = Topo 1 μM, 14 DIV to 20 DIV, ASO-1 minus labelled treatment
[2] = Topo 1 μM, 14 DIV to 20 DIV, ASO-R minus labelled treatment
[3] = Topo 1 μM, treated 14 DIV, RNA 20 DIV, normalized to ASO-C, ASO-C minus labelled treatment
[4] = treated 14 DIV, RNA 20 DIV, 10-point dose curve, 4-parameter logistic (Hill)
[5] = optimized ASOs, 14 DIV to 20 DIV, parallel model, 3-parameter logistic, read-out: IC50 (M), UBE3A-AS
[6] = optimized ASOs, treated 14 DIV, RNA 20 DIV, 5-point dose curve 30 nM-3 μM, full model, 3-parameter logistic, read-out: IC50 Estimate, UBE3A-AS
[7] = treated 29 DIV, RNA 35 DIV, 10-point dose curve, full model, 4-parameter logistic (Hill), read-out: IC50 Estimate, UBE3A-AS
[8] = Topo 1 μM, 14 DIV to 20 DIV, Topo minus labelled treatment
[9] = 14 DIV to 20 DIV, ASO-3 minus labelled treatment
[10] = 14 DIV to 20 DIV, ASO-5 minus labelled treatment
[11] = 14 DIV to 20 DIV, ASO-6 minus labelled treatment

Row | IC50 [5] | IC50 [6] | IC50 [7] | Molecule | 30 μM (Mean), normalized UBE3A-AS RNA level relative to vehicle (treated 14 DIV, RNA 20 DIV) | Difference, UBE3A-AS RNA level [1] | Difference, UBE3A-AS RNA level [2] | Difference, UBE3A-AS RNA level [3] | Emax Estimate (normalized UBE3A-AS RNA level relative to vehicle) [4] | 3 μM (Mean), Emax, normalized UBE3A-AS RNA level relative to vehicle (treated 14 DIV, RNA 20 DIV) | 30 μM (Mean), normalized UBE3A-AS RNA level relative to vehicle (treated 29 DIV, RNA 35 DIV) | low concentration that significantly reduced UBE3A-AS RNA levels | Relative Potency (optimized ASOs, parallel model) | Difference, UBE3A-AS RNA level [8] | Difference, UBE3A-AS RNA level [9] | Difference, UBE3A-AS RNA level [10] | Difference, UBE3A-AS RNA level [11] | UBE3A-AS RNA levels relative to the control treatment (in words) (treated 14 DIV, RNA 20 DIV) | other results
1 |  |  |  | CC[C@@]1(O)C(=O)OCc2c1cc1n(c2=O)Cc2cc3c(CN(C)C)c(O)ccc3nc2-1 [Topotecan, reference compound] | 0.21 | 0.15 | 0.64 | 0.66 | 0.26 |  |  |  |  |  |  |  |  |  | IC50 (Homo sapiens, Neuron, treated 14 DIV, RNA 20 DIV, 10-point dose curve 1 nM-30 μM, full model, 4-parameter logistic (Hill), read-out: IC50 Estimate (M), UBE3A-AS): 3.37e-08 M
2 |  |  |  | A^L*G^L*A^L*a*t*g*g*c*a*c*a*t*c*t*5mC^L*T^L*T^L*G^L (NNNATGGCACATCTNNNN; LNA gapmer, PS, 5-methylcytosine, chemistry not fully specified) [ASO-4.4.PS.L] |  |  |  |  |  |  |  |  |  |  |  |  |  |  | potency relative to the other ASOs of Cluster 1 (Cluster 1 ASOs, 18 DIV to 24 DIV): at least 3 times; Cluster (hierarchical clustering of fitted dose response curves) (candidate ASOs, Cluster 1 representing the 9 most potent ASOs): 1
3 | 7.2e-07 M | 5.2e-07 M | 5.17e-07 M | C^O*U^O*G^O*G^O*t*g*t*c*a*a*c*a*a*g*C^O*C^O*A^O*A^O [ASO-6.1] |  |  |  |  |  | 0.23 | 0.06 | 3 nM | highest relative potency |  |  |  |  |  | Relative Potency (optimized ASOs, parallel model, listed as ASO 6.1): 2.07; ASO-6.1/ASO-4 ratio: Emax (equivalence test) (treated 29 DIV, RNA 35 DIV): −1.3; ASO-6.1/ASO-4 ratio: IC50 (equivalence test) (treated 29 DIV, RNA 35 DIV): 1.03
4 |  |  |  | G^O*U^O*A^O*C^O*U^O*c*t*t*c*c*t*c*a*g*t*C^O*A^O*U^O*C^O*C^O [ASO-2] |  | 0.38 | 0.87 | 0.89 |  |  |  |  |  | 0.23 | 0.10 | 0.18 | 0.06 | largest effect | Difference, UBE3A-AS RNA level (14 DIV to 20 DIV, ASO-4 minus labelled treatment): 0.02
5 | 1.49e-06 M | 1.06e-06 M | 7.77e-07 M | U^O*A^O*G^O*A^O*A^O*t*g*g*c*a*c*a*t*c*t*C^O*U^O*U^O*G^O*G^O [ASO-4] | 0.09 | 0.36 | 0.85 | 0.87 | −0.06 | 0.29 | 0.11 | 3 nM | highest relative potency | 0.21 | 0.08 | 0.16 | 0.04 | largest effect | decrease of UBE3A-AS RNA levels (treated 14 DIV, RNA 20 DIV): 87%; decrease of UBE3A-AS RNA levels (treated 59 DIV, RNA 65 DIV): 81%; Relative Potency (optimized ASOs, parallel model, listed as ASO 4.S): 1; ASO-4/Topotecan Emax ratio (equivalence test) (treated 14 DIV, RNA 20 DIV): −4.1; ASO-4/Topotecan IC50 ratio (equivalence test) (treated 14 DIV, RNA 20 DIV): 1.2; IC50 (treated 14 DIV, RNA 20 DIV, 10-point dose curve 1 nM-30 μM, full model, 4-parameter logistic (Hill), read-out: IC50 Estimate (M), UBE3A-AS): 6.13e-07 M; Emax Estimate (normalized UBE3A-AS RNA level relative to vehicle) (treated 29 DIV, RNA 35 DIV, 4-parameter logistic (Hill)): 0.08
